Experimental data: patent US9468670B2, “Melatonin-based treatment and diagnosis of bile duct disease” (Texas A&M University System, priority 2011, dated 2016)

Tests used:
[1] = H&E evaluation of organ damage in melatonin-treated rats; type: in vivo, rat; conditions: normal and BDL rats treated with melatonin
Description: The following was also evaluated in paraffin-embedded liver sections ([…]): (i) lobular necrosis; (ii) the intrahepatic bile duct mass (IBDM) of large ([…]) (Alpini et al., 1997; Glaser et al., 2009) cholangiocytes, the only biliary cell types proliferating following BDL (Alpini et al., 1998; Glaser et al., 2009) and (iii) the percentage of cholangiocyte apoptosis by semiquantitative terminal deoxynucleotidyltransferase biotin-dUTP nick-end labeling (TUNEL) kit (Apoptag; Chemicon International, Inc.) (Glaser et al., 2010). Lobular necrosis was measured in liver sections stained for hematoxylin and eosin (Glaser et al., 2010). Lobular necrosis was scored as follows: −=0 foci; +/−=<2 foci; +=2-4 foci; and ++=>4 foci (Glaser et al., 2010). The IBDM was measured as area occupied by CK-19 positive-bile duct/total area×100 (Glaser et al., 2010). It was also evaluated by H&E of sections if melatonin administration induces the damage of kidney, heart, stomach, spleen and small and large intestine of normal and BDL rats. The sections from the selected were evaluated in a blinded-fashion by two board-certified pathologists by a BX-51 light microscope (Olympus, Tokyo, Japan) equipped with a camera.

CCA = assay: Sensitization of CCA to 5-fluorouracil and gemcitabine cytotoxicity in vitro; type: cell-based
large cholangiocytes = assay: PCNA expression and PKA, ERK1/2 phosphorylation (immunoblots) in purified large cholangiocytes from treated BDL rats; type: in vivo, rat
Description: Cholangiocyte proliferation was evaluated by immunoblots (Francis et al., 2008) by determination of PCNA protein expression (measured as ratio to b-actin protein expression) (Francis et al., 2008), and the phosphorylation of cAMP-dependent PKA and ERK1/2 (expressed as ratio to protein expression of the corresponding total proteins) in protein ([…]) from whole cell lysate from spleen (positive control) and large cholangiocytes from BDL rats treated with vehicle or melatonin. The intensity of the bands was determined by scanning video densitometry using the phospho-imager Storm 860 and the ImageQuant TL software version 2003.02 (GE Healthcare).

[2] = tested on: large cholangiocyte lines; assay: PCNA expression and PKA, ERK1/2 phosphorylation (immunoblots) in immortalized large cholangiocytes; type: cell-based, mouse; conditions: melatonin 10^−11 M, 48 hours
From the text: The expression of MT1 and MT2 receptors in immortalized large cholangiocytes was first evaluated by immunofluorescence (Francis et al., 2008). Images were visualized using an Olympus IX-71 confocal microscope. For all immunoreactions, negative controls (with normal serum from the same species substituted for the primary antibody) were included. It was next evaluated by commercially available radioimmunoassay (RIA) kits ([…] et al., 1998; Kato et al., 1992; […] et al., 1999; […] et al., 2004) for cAMP levels ([…] et al., 1998; Kato et al., 1992; […] Shiu et al., 2010). […] […] et al., 1992; Ramirez-Rodriguez et al., 2009; […], 1999). […] Shiu et al., 2010) before evaluating by immunoblots (Francis et al., 2008) the expression of PCNA and the phosphorylation of PKA and EKR1/2.

[3] = tested on: PER1, BMAL1, CRY1, CLOCK, MT1 and MT2; assay: Expression of clock genes and MT1/MT2 in cholangiocytes from treated rats (real-time PCR, FACS); type: in vivo, rat
Description: Male 344 Fischer rats (150-175 g) were purchased from Charles River (Wilmington, Mass.) and kept in a temperature-controlled environment (22° C.) with 12:12 hr light/dark cycles. Animals were fed ad libitum and had free access to food and drinking water. […] Before each surgical procedure, animals were anesthetized with sodium pentobarbital (50 mg/kg BW, IP). All animal experiments were performed in accordance with a protocol approved by the Scott and White and Texas A&M Health Science Center Institutional Animal Care and Use Committee and conform to the Guide for the Care and Use of Laboratory Animals published by the US National Institutes of Health (NIH Publication No. 85-23, revised 1996). In all animals, wet liver weight, body weight, wet liver weight to body weight ratio, and an index of liver cell growth including cholangiocytes were measured ([…] et al., 1988). […] FACS analysis was performed as described (Onori et al., 2010) using a C6 flow cytometer and analyzed by CFlow Software (Accuri Cytometers Inc. Ann Arbor, Mich.). […] The relative quantity of the selected protein (mean selected protein fluorescence) was expressed as mean FL1-A (samples)/mean FL-1A (secondary antibodies only). […] Data were expressed as relative mRNA levels ±SEM of the selected gene to glyceraldehyde-3-phosphate dehydrogenase (GAPDH) ratio.

[4] = Serum transaminases (SGPT, SGOT) and total bilirubin in normal and BDL rats; type: in vivo, rat; conditions: tap water containing melatonin (20 mg/L) for 1 week
Description: Male 344 Fischer rats (150-175 g) were purchased from Charles River (Wilmington, Mass.) and kept in a temperature-controlled environment (22° C.) with 12:12 hr light/dark cycles. Animals were fed ad libitum and had free access to food and drinking water. […] Before each surgical procedure, animals were anesthetized with sodium pentobarbital (50 mg/kg BW, IP). All animal experiments were performed in accordance with a protocol approved by the Scott and White and Texas A&M Health Science Center Institutional Animal Care and Use Committee and conform to the Guide for the Care and Use of Laboratory Animals published by the US National Institutes of Health (NIH Publication No. 85-23, revised 1996). In all animals, wet liver weight, body weight, wet liver weight to body weight ratio, and an index of liver cell growth including cholangiocytes were measured ([…] et al., 1988). In the selected groups of animals, the serum levels of the transaminases, serum glutamate pyruvate transaminases (SGPT) and serum glutamic oxaloacetic transaminase (SGOT) and total bilirubin were evaluated using a Dimension RxL Max Integrated Chemistry system (Dade Behring Inc., Deerfield Ill.) by the Chemistry Department, Scott & White. Melatonin serum levels were measured by commercially available ELISA kits according to the instructions provided by the vendor (Genway, San Diego, Calif.).

- SGOT ([4]; normal rats): 143.0 ± 36.0 Units/L
- SGPT ([4]; normal rats): 69.4 ± 45.9 Units/L
- Total bilirubin ([4]; normal rats): <0.1 mg/L
SMILES: COc1ccc2[nH]cc(CCNC(C)=O)c2c1 [melatonin]
- Morphological damage of kidney, heart, stomach, spleen and small and large intestine [1]: No morphological damage
- Sensitization of CCA to the cytotoxic effects of 5-fluorouracil (5-FU) (CCA): ~2 fold
- Sensitization of CCA to the cytotoxic effects of gemcitabine (CCA): ~2 fold
- PCNA expression in large cholangiocytes (large cholangiocytes; melatonin-treated BDL rats vs. BDL control rats): decreased
- Phosphorylation of cAMP-dependent PKA and ERK2 (but not ERK1) in large cholangiocytes (large cholangiocytes; melatonin-treated BDL rats vs. BDL controls): decreased
- PCNA expression and phosphorylation of PKA and ERK2 (but not ERK1) [2]: decreased
- Expression of MT1 and MT2 in cholangiocytes ([3]; BDL rats treated in vivo vs. regular tap water): decreased
- Expression of PER1, BMAL1, CRY1 and CLOCK in cholangiocytes ([3]; normal and BDL rats treated in vivo vs. control cholangiocytes): decreased
- SGOT ([4]; BDL rats): 585.0 ± 162.4 Units/L
- SGPT ([4]; BDL rats): 210.8 ± 45.9 Units/L
- Total bilirubin ([4]; BDL rats): 7.3 ± 1.9 mg/L
